The record followed here is patent US20240350647A1, “STING SENSITIZING AGENTS” (STipe Therapeutics ApS, priority 2023, published 2024).

Where a SMILES comes first, the peptide text is derived from it. Bridges are numbered along the chain shown (N, C = ends). Where no end group is shown, it is not given here. [ ]: non-standard residue; d: D form. The star is where a group is joined. C16 diacid = O=C(O)CCCCCCCCCCCCCCC(=O)*; AEEA = NCCOCCOCC(=O)O

The test system of one series is IFN-β. Briefly: Stimulation and sensitization assay in THP1 cells, IFN-β release (ELISA). The class given is cell-based, human. The settings on record: with 2 μM Agent 1. As to the method: THP1 cells were purchased from ATCC (TIB-202™) and cultured in RPMI 1640 supplemented with 10% FBS and 1% Penicillin/Streptomycin (P/S) at 37° C. and 5% CO2. Passaging of THP1 cells was kept below 20 passages.
ADU-S100 was dissolved according to manufacturer's protocol (tlrl-nacda2r) to 0.5 mg/mL in LAL and subsequently diluted in R10. diABZI Compound 3 was diluted from a 1 mM stock in 100% DMSO into R10. Agent 1 was dissolved to a stock solution of 1250 μM in 50% DMSO, 25 mM HEPES. Concentration of dissolved Agent 1 was determined by A280 measurement using Synergy HI (Biotek Gen5 SW). Subsequently, Agent 1 dilutions were prepared in RPMI 1640, 10% FBS, 1% P/S (R10).
Concentrations of CXCL10 and IFN-β in the collected supernatants were determined by Duo-Set ELISA from R&D. Absorbance measurements at 450/570 nm and quantification were done using Synergy HI plate reader (Biotek Gen5 SW), Microsoft Excel and GraphPad prism v. 9.3.1.
Data analysis and statistical analysis were done using GraphPad prism 9.3.1. […]
Dip: is the plateau in the middle of the curve, corresponding to EMax, same unite as y-axis. The EMax determined here are not derived from this regression, due to the limitations using bell shaped dose response. Instead, EMax-values were determined as the maximum response at any given STING agonist concentration for both IFN-β and CXCL10 from all experiments. […]

A further series is described as follows: FIG. 9. Here is the method:
Table printed on a drawing sheet, FIG. 9
The patent's description of the figure: FIG. 9. In vitro metabolic stability in blood.
First reader's note: Each column is one agent and each row gives its half-life in blood of one species at 37 °C; the test concentration is printed in the row label, or in the cells for human.

Another series relates to CD4+ T cells. Nature of the series: Dendritic Cell-T cell (DC-T) proliferation assay (ProImmune). The settings on record: 22 donors; Percentage Stimulation above Background ≥0.5%, SEM=2; peptides 0.34 μM. The text has this:
A panel of peripheral blood mononuclear cell (PBMC) samples from healthy human donors was selected from the ProImmune Ltd (UK) cell bank. Each PBMC sample was HLA (Human Leukocyte Antigen)-typed and stored in liquid nitrogen (vapor-phase) prior to use. The panel was selected so that HLA class II alleles known to be highly expressed in the global population were well represented (data not shown). Donors were predominantly selected by DRB1 allele expression.
A Dendritic Cell-T cell (DC-T) proliferation assay (ProImmune Ltd) was used to identify the presence or potential T cell epitopes within the peptides. Adherent donor PBMCs were cultured with appropriate growth factors to generate monocyte-derived DCs. DCs were then loaded with a control (control 1 and control 2), the peptide (Agent 1, Agent 2, and Agent 3, see FIG. 8A) or left untreated. The peptides were loaded at a final concentration of 0.34 μM.
Mature antigen-loaded DCs were then co-cultured at a fixed ratio with autologous CFSE-labelled T cells in multi-well plates. Each test condition was set up in eight replicate wells and cells were incubated for 7 days. At the end of the incubation period, cell samples were stained with anti-CD4 antibody, then washed and fixed for by flow cytometric analysis. Proliferation was determined by measuring a decrease in CFSE intensity.
Data were compiled to determine antigen-induced proliferation per individual donor, calculated as Percentage Stimulation above Background. The frequency of positive donor cell responses (Percentage Antigenicity) was calculated as the proportion of responding donors out of total donors. Values were then standardized against the strength of response (an average of the Percentage Stimulation value obtained across accepted donors for each protein) to give a response index (RI).
Data obtained by flow cytometric evaluation of cell samples was analyzed using FlowJo Software (Tree Star, Inc.). The number of CFSE-dim (i.e., proliferating) cells was determined for each sample in eight replicate wells. Counts for the CD4^+ CFSE dim population in each sample were expressed as a proportion of the total CD4^+ population. The eight replicate values were then used to calculate Percentage Stimulation above Background (proportion of CD4^+ CFSE dim cells with antigen stimulation minus the proportion of CD4^+ CFSE dim cells without antigen stimulation).
Background threshold values are based on data from unstimulated cells for which a maximum acceptable resting proliferation threshold is established.
In evaluating antigenicity, it is also appropriate to take account of the frequency of donor cell responses across the study cohort. A positive response (Percentage Stimulation above Background ≥0.5%) in 2 or more independent donor samples is considered indicative of a potential T cell epitope.
Depending on the size of the study, (20, 40 or 50 donors), two responding donors sets a threshold of 10%, 5% or 4% respectively. Thus, following calculation of Percentage Stimulation above Background, the frequency of positive donor cell responses (Percentage Antigenicity) is expressed as the proportion of responding donors out of total accepted donors screened.
When calculating the antigenicity of a protein it is important to consider the strength of a response as well as the frequency of that response. This is because some binding responses may be pan-allele, but these responses may not be very strong. The strength of positive donor cell responses was determined by taking an average of the percentage stimulation value obtained across accepted donors for each protein. Determining a Response Index (RI) through the multiplication of strength and frequency values is more representative of the level of antigenicity.

The nature of the next series: FIG. 10A. As to the method:
Table printed on a drawing sheet, FIG. 10A
(§1) The patent's description of the figure: FIGS. 10A-10C. Pharmacokinetic profile and parameter for peptides after intravenous administration. FIG. 10A) Mouse PK data (10 mg/kg, bolus IV, n=3 per timepoint). FIG. 10B) Rat PK data (10 mg/kg, bolus IV, n=3 per timepoint). FIG. 10C) Non-human primate (NHP) PK data (4 mg/kg, 30 min IV infusion, n=3). Error bars represent the standard deviation (SD).
First reader's note: Mouse PK parameters; the legend of the plot on the same sheet gives 10 mg/kg (IV) for both agents.

Another series is described as follows: FIG. 10B. As to the method: Table printed on a drawing sheet, FIG. 10B
as §1
First reader's note: Rat PK parameters; the plot legend on the same sheet gives 10 mg/kg (IV) for both agents, and the top-left cell 'PK parameters / rat' spans the first two rows.

A further series in a line: FIG. 10C. Here is the method:
Table printed on a drawing sheet, FIG. 10C
as §1
First reader's note: The species NHP stands in the head column of row 2, and the plot legend on the same sheet gives the dosing as 4 mg/kg (30-min IV) for both agents.

As for `Nc1nc2c(ncn2[C@@H]2O[C@@H]3COP(=O)(O)O[C@H]4[C@@H](O)[C@H](n5cnc6c(N)ncnc65)O[C@@H]4COP(=O)(O)O[C@@H]2[C@@H]3O)c(=O)[nH]1` [2′3′-cGAMP, cyclic 2′3′ GMP-AMP], the “EC50 of cGAMP for IFN expression” value in the series with IFN-β was “around 20 μg/mL”.

In the case of `CC[C@H](C)[C@H](NC(=O)[C@H](CC(N)=O)NC(=O)[C@H](CCCCN)NC(=O)[C@H](C)NC(=O)[C@H](CCCCN)NC(=O)[C@H](CCCCN)NC(=O)COCCOCCNC(=O)COCCOCCNC(=O)CCCCCCCCCCCCCCC(=O)O)C(=O)N[C@H](C(=O)N[C@@H](CC(C)C)C(=O)N[C@@H](CC(C)C)C(=O)N[C@@H](CCCCN)C(=O)NCC(=O)N[C@@H](CC(C)C)C(=O)N[C@@H](CCC(=O)O)C(=O)N[C@H](C(=O)N[C@H](C(=O)N[C@@H](CC(N)=O)C(=O)N[C@@H](CC(=O)O)C(=O)N[C@@H](Cc1c[nH]c2ccccc12)C(=O)N[C@@H](Cc1c[nH]cn1)C(=O)N[C@@H](Cc1ccccc1)C(=O)N[C@H]1CSSC[C@@H](C(N)=O)NC(=O)[C@@H](CCCNC(=N)N)NC(=O)[C@H](CCCNC(=N)N)NC(=O)[C@@H](CCCCN)NC(=O)[C@H](CCCCN)NC(=O)[C@@H](CCCNC(=N)N)NC(=O)CNC(=O)[C@@H](CCCNC(=N)N)NC(=O)[C@H](CCCNC(=N)N)NC(=O)[C@@H](CCCNC(=N)N)NC1=O)[C@@H](C)CC)C(C)C)C(C)C` [Agent 1 T½ (min)] ({C16 diacid-AEEA-AEEA}-KKAKNIVLLKGLEVINDWHFC[dR]R[dR]G[dR]K[dK]R[dR]C-NH2; disulfide 21-31), in “FIG. 9”, the “Mouse (@ 5.0 µg/mL)” value turned out to be 174 min, the “NHP (@ 4.4 µg/mL)” value came out at 172 min and the “Rat (@ 5.0 µg/mL)” value is reported as 86 min.

In the case of `CC[C@H](C)[C@H](NC(=O)[C@H](CC(N)=O)NC(=O)[C@H](CCCCN)NC(=O)[C@H](C)NC(=O)[C@H](CCCCN)NC(=O)[C@@H](N)CCCCN)C(=O)N[C@H](C(=O)N[C@@H](CC(C)C)C(=O)N[C@@H](CC(C)C)C(=O)N[C@@H](CCCCN)C(=O)NCC(=O)N[C@@H](CC(C)C)C(=O)N[C@@H](CCC(=O)O)C(=O)N[C@H](C(=O)N[C@H](C(=O)N[C@@H](CC(N)=O)C(=O)N[C@@H](CC(=O)O)C(=O)N[C@@H](Cc1c[nH]c2ccccc12)C(=O)N[C@@H](Cc1c[nH]cn1)C(=O)N[C@@H](Cc1ccccc1)C(=O)N[C@H]1CSSC[C@@H](C(N)=O)NC(=O)[C@@H](CCCNC(=N)N)NC(=O)[C@H](CCCNC(=N)N)NC(=O)[C@@H](CCCCN)NC(=O)[C@H](CCCCN)NC(=O)[C@@H](CCCNC(=N)N)NC(=O)CNC(=O)[C@@H](CCCNC(=N)N)NC(=O)[C@H](CCCNC(=N)N)NC(=O)[C@@H](CCCNC(=N)N)NC1=O)[C@@H](C)CC)C(C)C)C(C)C` [Agent 3] (H-KKAKNIVLLKGLEVINDWHFC[dR]R[dR]G[dR]K[dK]R[dR]C-NH2; disulfide 21-31; N-terminus assumed), in the series on CD4+ T cells, the “Response Index (RI)” value amounted to 0.306 and the percentage antigenicity was determined as 22.73%.

For “KKYKNIVLLKGLEVINDYHFGRKKRRQRRRPQ-NH2 [Agent 2 T½ (min)]”, in the series “FIG. 9”, the “Mouse (@ 5.0 µg/mL)” value is on record as 4 min and the “Rat (@ 5.0 µg/mL)” value is on record as 3 min.

In the case of “KKYKNIVLLKGLEVINDYHFGRKKRRQRRRPQ-NH2 [Agent 2, reference compound]”, in the series on CD4+ T cells, the “Response Index (RI)” value is given as 0.445 and the percentage antigenicity was 31.82%.

For “KKYKNIVLLKGLEVINDYHFGRKKRRQRRRPQ-NH2 [Agent 2]”, in the series “FIG. 10A”, the “AUC0-inf” value is on record as 373 ng·h/mL and the “Clobs” value came out at 447 mL/min/kg. Besides, the C0 in “FIG. 10A” (mouse, in vivo, iv, 10 mg/kg) turned out to be 3910 ng/mL. Further, in the series “FIG. 10B”, the “AUC0-inf” value is on record as 225 ng·h/mL and the “Clobs” value was determined as 742 mL/min/kg. This compound also came in with a C0 in “FIG. 10B” (rat, in vivo, iv, 10 mg/kg) of 1730 ng/mL. For the same compound, in the series “FIG. 10C”, the “AUC0-inf (ng·h/mL)” value is on record as 1,250 ng·h/mL, the “C0 (ng/mL)” value was 2,760 ng/mL and the “Clobs” value was determined as 53.8 mL/min/kg.
